Laboratory results as given in ChEMBL document CHEMBL4330176, “Imidazoquinolines as Novel Inhibitors of LRRK2 Kinase Activity” (ACS Med Chem Lett, 2019).

Key:
[1] = molecular target: Leucine-rich repeat serine/threonine-protein kinase 2 (Homo sapiens, UniProt Q5S007); assay: Inhibition of recombinant wild-type GST-tagged LRRK2 (unknown origin) expressed in baculovirus expression system using fluorescein-labeled LRRKtide as substrate after 30 mins by Lanthascreen assay
[2] = molecular target: Leucine-rich repeat serine/threonine-protein kinase 2 (Homo sapiens, UniProt Q5S007, G2019S); assay: Inhibition of GST-tagged LRRK2 G2019S mutant (unknown origin) expressed in baculovirus expression system using fluorescein-labeled LRRKtide as substrate after 30 mins by Lanthascreen assay
Leucine-rich repeat serine/threonine-protein kinase 2 (Homo sapiens, UniProt Q5S007, G2019S), sequence (Q5S007 whole entry G2019S): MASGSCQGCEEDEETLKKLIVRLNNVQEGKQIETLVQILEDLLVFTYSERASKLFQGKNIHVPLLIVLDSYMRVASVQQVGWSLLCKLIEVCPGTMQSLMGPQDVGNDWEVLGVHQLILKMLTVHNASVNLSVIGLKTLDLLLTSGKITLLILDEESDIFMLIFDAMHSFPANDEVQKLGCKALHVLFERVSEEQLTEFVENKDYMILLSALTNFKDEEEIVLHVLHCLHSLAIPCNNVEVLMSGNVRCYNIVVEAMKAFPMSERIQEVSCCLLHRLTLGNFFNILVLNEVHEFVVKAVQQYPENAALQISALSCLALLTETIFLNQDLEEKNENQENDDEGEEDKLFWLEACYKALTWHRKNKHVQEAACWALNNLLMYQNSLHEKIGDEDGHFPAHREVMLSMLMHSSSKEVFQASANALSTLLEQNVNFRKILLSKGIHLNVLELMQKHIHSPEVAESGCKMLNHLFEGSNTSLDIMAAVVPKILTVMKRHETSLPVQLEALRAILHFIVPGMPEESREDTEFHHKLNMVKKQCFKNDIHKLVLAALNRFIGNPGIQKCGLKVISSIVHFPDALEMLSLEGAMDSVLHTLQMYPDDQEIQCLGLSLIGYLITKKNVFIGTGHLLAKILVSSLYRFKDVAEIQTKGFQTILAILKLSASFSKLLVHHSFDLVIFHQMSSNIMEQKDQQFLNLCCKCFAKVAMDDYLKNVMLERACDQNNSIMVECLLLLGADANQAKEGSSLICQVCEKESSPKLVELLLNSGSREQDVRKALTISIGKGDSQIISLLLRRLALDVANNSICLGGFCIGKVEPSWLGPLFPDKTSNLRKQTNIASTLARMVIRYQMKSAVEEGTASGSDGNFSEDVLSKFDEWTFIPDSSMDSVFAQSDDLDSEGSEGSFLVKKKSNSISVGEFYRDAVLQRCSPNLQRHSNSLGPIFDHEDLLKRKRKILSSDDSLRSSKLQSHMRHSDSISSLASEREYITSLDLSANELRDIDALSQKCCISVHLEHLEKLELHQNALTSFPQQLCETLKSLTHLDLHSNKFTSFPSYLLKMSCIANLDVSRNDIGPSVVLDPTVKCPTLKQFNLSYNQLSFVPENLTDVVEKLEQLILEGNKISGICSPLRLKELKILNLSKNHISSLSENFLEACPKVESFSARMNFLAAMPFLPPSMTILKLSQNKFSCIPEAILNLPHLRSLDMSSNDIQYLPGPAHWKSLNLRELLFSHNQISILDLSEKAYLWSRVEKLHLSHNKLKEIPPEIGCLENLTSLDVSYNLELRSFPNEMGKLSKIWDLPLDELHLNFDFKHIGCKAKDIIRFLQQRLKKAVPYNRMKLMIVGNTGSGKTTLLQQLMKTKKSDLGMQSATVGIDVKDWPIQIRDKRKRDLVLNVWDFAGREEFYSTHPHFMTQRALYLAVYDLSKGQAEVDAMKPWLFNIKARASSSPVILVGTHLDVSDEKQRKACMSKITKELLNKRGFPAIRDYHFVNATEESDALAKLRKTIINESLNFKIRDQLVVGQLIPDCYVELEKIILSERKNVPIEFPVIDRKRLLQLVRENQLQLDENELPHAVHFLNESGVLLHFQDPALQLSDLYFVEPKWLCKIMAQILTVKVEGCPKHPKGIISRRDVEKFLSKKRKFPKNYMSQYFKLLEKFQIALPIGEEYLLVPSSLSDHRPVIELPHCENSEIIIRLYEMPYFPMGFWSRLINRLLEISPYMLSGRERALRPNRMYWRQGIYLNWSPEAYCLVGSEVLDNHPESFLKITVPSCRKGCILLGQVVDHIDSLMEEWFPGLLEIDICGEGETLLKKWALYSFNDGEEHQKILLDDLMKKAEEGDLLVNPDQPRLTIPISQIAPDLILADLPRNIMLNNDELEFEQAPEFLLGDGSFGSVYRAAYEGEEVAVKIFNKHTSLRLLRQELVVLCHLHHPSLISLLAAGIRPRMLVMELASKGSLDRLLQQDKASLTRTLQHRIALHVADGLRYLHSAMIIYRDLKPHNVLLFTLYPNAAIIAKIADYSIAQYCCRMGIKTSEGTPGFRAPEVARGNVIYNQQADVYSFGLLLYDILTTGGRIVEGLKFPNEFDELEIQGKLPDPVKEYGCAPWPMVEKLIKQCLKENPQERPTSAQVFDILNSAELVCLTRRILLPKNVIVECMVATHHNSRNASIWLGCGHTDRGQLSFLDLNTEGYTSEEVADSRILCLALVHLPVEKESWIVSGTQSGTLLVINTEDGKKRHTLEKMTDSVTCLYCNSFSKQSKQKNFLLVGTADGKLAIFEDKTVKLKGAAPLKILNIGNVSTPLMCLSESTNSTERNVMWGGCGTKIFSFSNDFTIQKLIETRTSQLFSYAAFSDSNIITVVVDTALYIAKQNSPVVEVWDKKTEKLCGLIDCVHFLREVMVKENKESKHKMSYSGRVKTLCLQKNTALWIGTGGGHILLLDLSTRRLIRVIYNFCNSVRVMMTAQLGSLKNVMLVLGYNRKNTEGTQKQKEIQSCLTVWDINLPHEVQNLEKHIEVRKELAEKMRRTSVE

Leucine-rich repeat serine/threonine-protein kinase 2 (Homo sapiens, UniProt Q5S007), sequence (Q5S007 whole entry): as the sequence (Q5S007 whole entry G2019S) above, with S2019G counted along it

Compound	IC50 [1]	IC50 [2]
N#Cc1ccc2ncc3nc(Cc4csnn4)n([C@@H]4CC[C@H](F)C4)c3c2c1 (relative stereo)	9.73 nM	9.75 nM
[2H]C([2H])([2H])c1cnc(Cc2nc3cnc4ccc(Cl)cc4c3n2[C@@H]2CCO[C@H](C)C2)cn1	–	2.16 nM
Cc1nc(Cc2nc3cnc4ccc(C(F)(F)F)cc4c3n2[C@@H]2CCOCC2(F)F)no1	25.7 nM	26.5 nM
CCc1nc2cnc3ccc(Cl)cc3c2n1[C@@H]1CCO[C@H](CC#N)C1	–	8.7 nM
